Laboratory results: patent US9260504B2, “N- and C-terminal substituted antagonistic analogs of GH-RH” (University of Miami, priority 2008, dated 2016)

Tests used:
Type in all cases: in vivo
[1] = system: HT human diffuse mixed B cell lymphoma cell line; assay: HT human diffuse mixed B cell lymphoma xenografts in nude mice; conditions: 5 μg/day s.c.
Procedure: The aim of this study was to find out the tumor inhibitor effect of the latest GHRH antagonists (Peptide 11602, Peptide 11604, Peptide 11606, and Peptide 11610) at the dose of 5 μg/day on HT human diffuse mixed B cell lymphoma cell line. Female nude mice were xenografted subcutaneously with approximately 3 mm^3 pieces of HT malignant tumor tissue. When tumors reached the mean volume of approximately 120 mm^3, the animals were randomly assigned into different groups. Tumor volumes and body weight were measured once a week. At the end of the experiment mice were anesthetized and sacrificed. Tumors were carefully excised, weighed and were stored at −80° C. until further investigation. Organs and tumor samples were preserved in 10% formaldehyde.

[2] = system: Human ovarian cancer SKOV3 cells; assay: SKOV3 ovarian cancer xenografts in nude mice; conditions: 5 μg/day s.c.
Text: Human ovarian cancer SKOV3 cells growing exponentially were implanted info five female nude mice by subcutaneous (s.c.) injection of 10^7 cells in both flanks. Tumors That resulted after approximately 4 weeks in donor animals were then aseptically dissected and mechanically minced. Three mm^3 pieces of tumor tissue were transplanted subcutaneously into experimental animals with a trocar needle. When tumors reached an appropriate size (approximately 50 mm^3), mice were randomly divided into […]. The first was the control group, the second group was treated with daily s.c. injections of 5 μg P-11313, the third group was treated with daily s.c. injections of 5 μg P-11604, the fourth group was treated with daily s.c. injections of 5 μg P-11610. Tumor volume (length×width×height×0.5236) was measured every week and mean tumor volumes of each group were compared by Student's t-test. The study lasted 49 days. One week after end of treatment, mice were killed under anesthesia, tumors were snap frozen and stored at −70° C.

[3] = system: PC-3 human hormone-independent prostate cancer; assay: PC3 androgen-independent prostate cancer xenografts in nude mice (Example XIV)
Procedure: Male nude mice were implanted s.c. with 3 mm^3 pieces of PC-3 human hormone-independent prostate cancer tissue on both flanks. When tumors reached a volume of approximately 50 mm^3, the mice were divided into 8 experimental groups with 8 to 10 animals in each group and received single daily injections for 28 days as follows: 1. Control (vehicle solution); 2. P-11513 2 μg/day; 3. P-11602 2 μg/day; 4. P-11602 1 μg/day; 5. P-11604 2 μg/day; 6. P-11606 2 μg/day; 7. P-11610 2 μg/day; 8. P-11610 1 μg/day.
Tumor volumes were measured once a week. The experiment was ended on day 28 by sacrificing the mice under Isoflurane anesthesia. Resulting tumors were cleaned, weighed, and snap-frozen until further analyses. Statistical analyses of the measurement results were done by two-tailed t-test, p<0.05 being considered significant.

[4] = system: H460 human non-small cell lung cancer cell line; assay: H460 human non-small cell lung cancer xenografts in nude mice (Example XV); conditions: 5 μg/day s.c.
Text: The aim of this study was to find out the tumor inhibitor effect of the latest GHRH antagonists (Peptide 11423, Peptide 11602, Peptide 11604, Peptide 11606) on H460 human non-small cell lung cancer cell line. Female nude mice were xenografted subcutaneously with approximately 3 mm^3 pieces of H460 human non-small cell lung cancer malignant tumor tissue. When tumors reached the mean volume of approximately 90 mm^3, the animals was randomly assigned into different groups. Tumor volumes and body weight were measured once a week. At the end of the experiment mice were anesthetized and sacrificed. Tumors were carefully excised, weighed and were stored at −80° C. until further investigation. Organs and tumor samples were preserved in 10% formaldehyde.

Substance: [(PhAc-Ada)^0-Tyr^1, D-Arg^2, (Phe(F)5)^6, Ala^8, Har^9, Tyr(Me)^10, His^11, Orn^12, Abu^15, His^20, Orn^21, Nle^27, D-Arg^28, Har^29, Agm^30]hGH-RH(1-29) [Peptide 11604]
- TUMOR GROWTH (%) ([1]; day 1 (baseline)): 100%
- Tumor inhibition (%) ([1]; day 1 (baseline)): 0%
- Tumor volume (mm^3) ([1]; day 1 (baseline)): 125.04 mm^3
- TUMOR GROWTH (%) ([1]; day 7): 129.89%
- Tumor inhibition (%) ([1]; day 7): 57.53%
- Tumor volume (mm^3) ([1]; day 7): 165.21 mm^3
- TUMOR GROWTH (%) ([1]; day 14): 175.7%
- Tumor inhibition (%) ([1]; day 14): 63.61%
- Tumor volume (mm^3) ([1]; day 14): 231.44 mm^3
- TUMOR GROWTH (%) ([1]; day 21): 271.36%
- Tumor inhibition (%) ([1]; day 21): 65.27%
- Tumor volume (mm^3) ([1]; day 21): 563.86 mm^3
- TUMOR GROWTH (%) ([1]; day 28): 338.41%
- Tumor inhibition (%) ([1]; day 28): 62.25%
- Tumor volume (mm^3) ([1]; day 28): 818.2 mm^3
- TU growth (%) ([2]; day 0 (baseline)): 100%
- TU growth (%) ([2]; day 7): 144.55%
- TU inhibition (%) ([2]; day 7): 32.57%
- TU growth (%) ([2]; day 14): 174.5%
- TU inhibition (%) ([2]; day 14): 37.73%
- TU growth (%) ([2]; day 21): 179.5%
- TU inhibition (%) ([2]; day 21): 66.97%
- TU growth (%) ([2]; day 28): 167.5%
- TU inhibition (%) ([2]; day 28): 80.12%
- TU growth (%) ([2]; day 35): 182.88%
- TU inhibition (%) ([2]; day 35): 79.52%
- TU growth (%) ([2]; day 42): 397.95%
- TU inhibition (%) ([2]; day 42): 67.80%
- TU growth (%) ([2]; day 49): 309.96%
- TU inhibition (%) ([2]; day 49): 75.63%
- TUMOR GROWTH (%) ([3]; 2 μg/day, day 0 (baseline)): 100%
- TUMOR GROWTH (%) ([3]; 2 μg/day, day 7): 159.84%
- Tumor inhibition (%) ([3]; 2 μg/day, day 7): 51.75%
- TUMOR GROWTH (%) ([3]; 2 μg/day, day 14): 199.57%
- Tumor inhibition (%) ([3]; 2 μg/day, day 14): 66.23%
- TUMOR GROWTH (%) ([3]; 2 μg/day, day 21): 316.88%
- Tumor inhibition (%) ([3]; 2 μg/day, day 21): 73.37%
- TUMOR GROWTH (%) ([3]; 2 μg/day, day 28): 383.97%
- Tumor inhibition (%) ([3]; 2 μg/day, day 28): 79.33%
- TUMOR GROWTH (%) ([4]; day 1 (baseline)): 100.00%
- TUMOR GROWTH (%) ([4]; day 7): 341.87%
- Tumor inhibition (%) ([4]; day 7): 35.48%
- TUMOR GROWTH (%) ([4]; day 14): 609.38%
- Tumor inhibition (%) ([4]; day 14): 55.93%
- TUMOR GROWTH (%) ([4]; day 21): 1006.40%
- Tumor inhibition (%) ([4]; day 21): 59.24%
- TUMOR GROWTH (%) ([4]; day 28): 1595.34%
- Tumor inhibition (%) ([4]; day 28): 61.08%

Substance: [(PhAc-Ada)^0-Tyr^1, D-Arg^2, (Phe(F)5)^6, Ala^8, Har^9, Tyr(Me)^10, His^11, Orn^12, Abu^15, His^20, Orn^21, Nle^27, D-Arg^28, Har^29]hGH-RH(1-29)NH2 [Peptide 11602]
- TUMOR GROWTH (%) ([1]; day 1 (baseline)): 100%
- Tumor inhibition (%) ([1]; day 1 (baseline)): 0%
- Tumor volume (mm^3) ([1]; day 1 (baseline)): 194.81 mm^3
- TUMOR GROWTH (%) ([1]; day 7): 192.86%
- Tumor inhibition (%) ([1]; day 7): 36.94%
- Tumor volume (mm^3) ([1]; day 7): 260.13 mm^3
- TUMOR GROWTH (%) ([1]; day 14): 281.4%
- Tumor inhibition (%) ([1]; day 14): 41.71%
- Tumor volume (mm^3) ([1]; day 14): 311.76 mm^3
- TUMOR GROWTH (%) ([1]; day 21): 462.45%
- Tumor inhibition (%) ([1]; day 21): 40.82%
- Tumor volume (mm^3) ([1]; day 21): 332.67 mm^3
- TUMOR GROWTH (%) ([1]; day 28): 608.23%
- Tumor inhibition (%) ([1]; day 28): 32.15%
- Tumor volume (mm^3) ([1]; day 28): 509.24 mm^3
- TUMOR GROWTH (%) ([3]; 1 μg/day, day 0 (baseline)): 100%
- TUMOR GROWTH (%) ([3]; 1 μg/day, day 7): 249.81%
- Tumor inhibition (%) ([3]; 1 μg/day, day 7): 24.59%
- TUMOR GROWTH (%) ([3]; 1 μg/day, day 14): 295.25%
- Tumor inhibition (%) ([3]; 1 μg/day, day 14): 50.04%
- TUMOR GROWTH (%) ([3]; 1 μg/day, day 21): 467.74%
- Tumor inhibition (%) ([3]; 1 μg/day, day 21): 60.70%
- TUMOR GROWTH (%) ([3]; 1 μg/day, day 28): 740.06%
- Tumor inhibition (%) ([3]; 1 μg/day, day 28): 60.15%
- TUMOR GROWTH (%) ([3]; 2 μg/day, day 0 (baseline)): 100%
- TUMOR GROWTH (%) ([3]; 2 μg/day, day 7): 197.77%
- Tumor inhibition (%) ([3]; 2 μg/day, day 7): 40.30%
- TUMOR GROWTH (%) ([3]; 2 μg/day, day 14): 270.61%
- Tumor inhibition (%) ([3]; 2 μg/day, day 14): 54.21%
- TUMOR GROWTH (%) ([3]; 2 μg/day, day 21): 449.82%
- Tumor inhibition (%) ([3]; 2 μg/day, day 21): 62.20%
- TUMOR GROWTH (%) ([3]; 2 μg/day, day 28): 641.31%
- Tumor inhibition (%) ([3]; 2 μg/day, day 28): 65.47%
- TUMOR GROWTH (%) ([4]; day 1 (baseline)): 100.00%
- TUMOR GROWTH (%) ([4]; day 7): 247.89%
- Tumor inhibition (%) ([4]; day 7): 53.21%
- TUMOR GROWTH (%) ([4]; day 14): 504.42%
- Tumor inhibition (%) ([4]; day 14): 63.52%
- TUMOR GROWTH (%) ([4]; day 21): 864.16%
- Tumor inhibition (%) ([4]; day 21): 65.00%
- TUMOR GROWTH (%) ([4]; day 28): 2575.35%
- Tumor inhibition (%) ([4]; day 28): 37.18%

Substance: [(PhAc^0-Ada)-Tyr^1, D-Arg^2, (Phe(F)5)^6, (Me-Ala)^8, Har^9, Tyr(Me)^10, His^11, Orn^12, Abu^15, His^20, Orn^21, Nle^27, D-Arg^28, Har^29, Agm^30]hGH-RH(1-29) [Peptide 11606]
- TUMOR GROWTH (%) ([1]; day 1 (baseline)): 100%
- Tumor inhibition (%) ([1]; day 1 (baseline)): 0%
- Tumor volume (mm^3) ([1]; day 1 (baseline)): 128.49 mm^3
- TUMOR GROWTH (%) ([1]; day 7): 209.74%
- Tumor inhibition (%) ([1]; day 7): 31.38%
- Tumor volume (mm^3) ([1]; day 7): 223.02 mm^3
- TUMOR GROWTH (%) ([1]; day 14): 352.2%
- Tumor inhibition (%) ([1]; day 14): 27.05%
- Tumor volume (mm^3) ([1]; day 14): 341.77 mm^3
- TUMOR GROWTH (%) ([1]; day 21): 453.71%
- Tumor inhibition (%) ([1]; day 21): 41.94%
- Tumor volume (mm^3) ([1]; day 21): 510.24 mm^3
- TUMOR GROWTH (%) ([1]; day 28): 660.24%
- Tumor inhibition (%) ([1]; day 28): 26.35%
- Tumor volume (mm^3) ([1]; day 28): 716.13 mm^3
- TUMOR GROWTH (%) ([3]; 2 μg/day, day 0 (baseline)): 100%
- TUMOR GROWTH (%) ([3]; 2 μg/day, day 7): 145.65%
- Tumor inhibition (%) ([3]; 2 μg/day, day 7): 56.03%
- TUMOR GROWTH (%) ([3]; 2 μg/day, day 14): 307.66%
- Tumor inhibition (%) ([3]; 2 μg/day, day 14): 47.94%
- TUMOR GROWTH (%) ([3]; 2 μg/day, day 21): 521.69%
- Tumor inhibition (%) ([3]; 2 μg/day, day 21): 56.16%
- TUMOR GROWTH (%) ([3]; 2 μg/day, day 28): 709.50%
- Tumor inhibition (%) ([3]; 2 μg/day, day 28): 61.80%
- TUMOR GROWTH (%) ([4]; day 1 (baseline)): 100.00%
- TUMOR GROWTH (%) ([4]; day 7): 221.26%
- Tumor inhibition (%) ([4]; day 7): 58.24%
- TUMOR GROWTH (%) ([4]; day 14): 494.68%
- Tumor inhibition (%) ([4]; day 14): 64.22%
- TUMOR GROWTH (%) ([4]; day 21): 933.19%
- Tumor inhibition (%) ([4]; day 21): 62.20%
- TUMOR GROWTH (%) ([4]; day 28): 1482.03%
- Tumor inhibition (%) ([4]; day 28): 63.85%
